# Reference: PMC12669049, “Energy-transfer photoproximity labelling in live cells using an organic cofactor” (Nature Chemistry, 2025)
# Values joined by “and” are separate entries in the source; they are usually repeats but may differ in a detail not shown here. Identical values can stand only once.
# How the values were obtained:
# [1] = Phenyl azide S3 conversion via HPLC
# Protocol: 3.2 Photocatalyst Screening
# 3.2.1 Phenyl azide conversion via HPLC
# To an 8 mL crimp neck vial with magnetic stirrer bar was added a solution of phenyl azide S3 (1 mM, 10 µL of 100 mM DMSO stock) and photocatalyst (PC, 0.1 mM, 10 µL of 10 mM DMSO stock) in PBS pH = 7.4 (1 mL). The vial was sealed and sparged with Ar for 10 min before being irradiated with a 450 nm light (40W, EvoluChem, PhotoRedOx Box) for 15 min. […]
# trifluoromethylbenzoic acid as the internal standard (1 mM) and analysed using analytical HPLC (see Section 2.5 for further details). Conversions were calculated using standard calibration curve of phenyl azide S3 vs. internal standard and are represented as the average of duplicate runs.
# Calibration curve of phenyl azide S3 vs. internal standard
# (also on this page, place not known: Normalised Intensity (Substrate/Standard))
# [2] = Stationary and time-resolved absorption and emission spectroscopy (photophysics); type: physicochemical
# Source text: (§1) Details of the stationary and time-resolved absorption and emission spectroscopy procedures used for the mechanistic studies are given in Supplementary Section 3.3.
# [3] = cited from earlier work
# [4] = Photocatalytic conversion of diazirine, analysis via 19F NMR
# Protocol: To an 8 ml crimp neck vial with a magnetic stirrer bar was added a solution of diazirine (100 µM, 10 µl of 10 mM DMSO stock) and photocatalyst (10 µM, 10 µl of 1 mM DMSO stock) in PBS (pH = 7.4, 1 ml). The vial was sealed and sparged with Ar for 10 min before being irradiated with 450 nm light (30 W LED; EvoluChem, PhotoRedOx Box) for 15 min. The solution was then spiked with p-(trifluoromethyl)benzoic acid as the internal standard (100 µM, chemical shift (δ) = −61.35 ppm) and analysed via ^19F NMR to determine the conversion of diazirine (δ = −64.23 ppm) to the carbinol product (δ = −76.64 ppm)[17]. Conversions are represented as the average of duplicate runs.
# [5] = system: HeLa cells; assay: Cell viability assay (WST-1); type: cell-based; conditions: WST-1, 24 h incubation, Extended Data Fig. 5a
# [6] = Transient absorption of 4 with substrates (triplet energy / electron transfer); type: physicochemical; conditions: GSH 50 mM
# Source text: as §1
# [7] = system: reporter HeLa cells expressing cytoplasmic HaloTag–SNAP-tag fusion protein; assay: Modified chloroalkane penetration assay (CAPA), HeLa; type: in vitro ADME; conditions: modified pulse-chase CAPA, 1 h pulse in FluoroBrite DMEM, chase CA–TMR-d12 15 min, BG–SiR-d12 1 µM for normalisation, flow cytometry, Fig. 4f, three biological replicates (mean ± SD)
# Protocol: (§2) CA–TMR-d12 and BG–SiR-d12 were prepared as described previously. HeLa or HEK293T cells were seeded onto 10 cm cell culture dishes and allowed to attach for 24 h under standard cell culture maintenance conditions. The culture medium was replaced with fresh DMEM (5 ml, high glucose) with 10% FCS without antibiotics followed by plasmid (pcDNA5-HaloTag-Pro30-SNAP-tag) transfection using Lipofectamine 3000 (Thermo) according to Supplementary Section 2.8. After 24 h, the transfected cells were trypsinized, seeded into 24-well cell culture plates (1 × 10^5 cells per well) and incubated again for 24 h. […] Cell pellets were resuspended in PBS (400 µl) and analysed via flow cytometry (FACS Fortessa). The mean fluorescence intensity (MFI) values in the TMR and Cy5 (SiR) channels of live cells were determined. […] Equation (2) below was used to determine the percentage fluorescence intensity:2 Fluorescenceintensity%=(photocatalyst−chloroalkaneMFITMR)−(photocatalystMFITMR)/(CA−NHBocMFITMR)−(photocatalystMFITMR)×100.
# [8] = system: reporter HEK293T cells expressing cytoplasmic HaloTag–SNAP-tag fusion protein; assay: Modified chloroalkane penetration assay (CAPA), HEK293T; type: in vitro ADME; conditions: 1 h pulse, flow cytometry, Extended Data Fig. 6b, representative data of two biological replicates
# Protocol: as §2
# [9] = PBS pH 7.4, S3 1 mM, photocatalyst 0.1 mM, 450 nm 15 min, HPLC calibration curve, average of duplicate runs
# [10] = PBS pH 7.4, diazirine 100 µM, photocatalyst 10 µM, 450 nm LED 15 min, average of duplicate runs
molecule,measurement,setting,value
"O=c1c2ccccc2sc2ccccc12 [2a, thioxanthone]",Conversion of aryl azide S3,[1]; [9],77%
same,λmax of first absorption band,"[2]; Fig. 1a, footnote a (footnote text not shown; a = 1:1 DMSO/H2O in Supplementary Fig. 4)",385 nm
same,λmax,[2]; Supplementary Fig. 4,387 nm
same,"Triplet energy (ET, E0–0,T1)",[3],67.4 kcal/mol
same,Conversion of diazirine 1,[4]; [10],71% and > 70%
"CC(C)(C)c1ccnc(-c2cc(C(C)(C)C)ccn2)c1.F[P-](F)(F)(F)(F)F.Fc1c[c-]c(-c2ccc(C(F)(F)F)cn2)c(F)c1.Fc1c[c-]c(-c2ccc(C(F)(F)F)cn2)c(F)c1.[Ir+3] [3b, [Ir(dF(CF3)ppy)2(dtbbpy)]PF6]",λmax,"[2]; Supplementary Fig. 4, 1:1 DMSO/H2O",380 nm
same,Singlet oxygen quantum yield ΦΔ,[2]; in acetonitrile,93%
same,"Triplet energy (ET, E0–0,T1)",[3],60.1 kcal/mol
"O=C1OC2(c3ccccc31)c1cc(Br)c(O)c(Br)c1Oc1c2cc(Br)c(O)c1Br [EY, eosin Y]",Cytotoxicity (in words),[5],do not induce cytotoxicity
"N[C@@H](CCC(=O)N[C@@H](CS)C(=O)NCC(=O)O)C(=O)O [GSH, glutathione]",Quantum yield of electron transfer ΦeT to triplet state of 4,[6],73%
"Cn1c2nc(=O)[nH]c(=O)c-2cc2ccccc21 [compound 4, deazaflavin]",Conversion of aryl azide S3,[1]; [9],100%
same,Conversion of diazirine 1,"[4]; 1:1 DMSO/H2O, 450 nm 15 min",85%
Cn1c2nc(=O)n(CC(=O)NCCOCCOCCCCCCCl)c(=O)c-2cc2ccccc21 [compound 15],CP50 (treatment concentration where 50% of the HaloTags are labelled),[7],198 ± 79.2 nM
same,CP50,[8],"2,063 nM"
Ir[dFCF3CO2Hppy]2[diolbpy] [3a],Conversion of aryl azide S3,[1]; [9],84%
same,Cytotoxicity (in words),[5],do not induce cytotoxicity
same,λmax,[2]; Supplementary Fig. 4,380 nm
same,"Triplet energy (ET, E0–0,T1)",[3],60.1 kcal/mol
MeO-thioxanthone [2b],Conversion of aryl azide S3,[1]; [9],61%
same,Conversion of diazirine 1,[4]; [10],< 5%
Riboflavin tetraacetate [RTA],Conversion of aryl azide S3,[1]; pH 7.4,69%
diMeO-alloxazine [S2],Conversion of aryl azide S3,[1]; [9],94%
same,λmax,[2]; Supplementary Fig. 4,396 nm
diMeO-deazaflavin [S1],Conversion of aryl azide S3,[1]; [9],79%
same,λmax,[2]; Supplementary Fig. 4,418 nm
same,Conversion of diazirine 1,[4]; [10],< 50% and 44%
